# Data taken from patent US5885968A, “Triantennary cluster glycosides, their preparation and use” (Rijksuniversiteit te Leiden, priority 1992, dated 1999).
# Where two headings read alike, the source gives them in different places.
# Columns and labels:
# rats [1] = assay: In vivo fate of lipoprotein (a) charged with glycolipid in rats; design: species or system rat; details: rats
# Description: The so prepared TG(20 Å)-chol (formula 20): [drawing 24] can also be used to direct apo(a) to the hepatic parenchymal cell. High levels of lp(a) are correlated with the occurence of coronary and vascular diseases. To date, an adequate clinical therapy to alleviate the pathogenesis is not available. To investigate whether TG(20 Å)C can be used to stimulate the hepatic uptake and processing of lp(a) this, isolated lp(a) was charged with TG(20 Å)-chol according to a procedure that is known per se and the in vivo behaviour of the particle was studied. Lp(a) (50 μg) in PBS was incubated at 20° C. for 30 min with 0, 5, 15 and 50 μg TG(20 Å) (-chol). This charge led to a changed behaviour of the apo(a) after intravenous injection into rats. This is illustrated in FIG. 8. […] On account of the high […] of TG(20 Å)-chol, very rapidly an exchange of this compound occurs between lp(a) and other lipoproteins and lipid compartments. This then leads to a stabilization of the lp(a) level in the bloodstream after a few minutes.
# ^125 I-Lp(a) (50 μg) was mixed with 50 μg of TG(20 Å)C or TG(4 Å)C in 500 μl PBS. After 30 min at room temperature, the mixtures were injected into rats at a dose of 50 μg of apolipoprotein/kg body weight. Ten minutes after injection, parenchymal, endothelial and Kupffer cells were isolated from the liver and counted for radioactivity. Values are expressed as 10-3.% of the injected dose per mg of cellular protein and are means of 3 experiments ± s.e.m.
# [2] = target: T1, asialoglycoprotein receptor (Rattus norvegicus, UniProt P02706+P08290); assay: Inhibition of binding of radiolabeled asialoorosomucoid to rat liver parenchymal cells; details: for Ki: rat liver parenchymal cells, labeled asialoorosomucoid
# T1 construct: parenchymal cells isolated from rat liver; endogenous in cells; host or cells: primary parenchymal cells (hepatocytes) isolated from rat liver
# T1 sequence (P02706 1-284): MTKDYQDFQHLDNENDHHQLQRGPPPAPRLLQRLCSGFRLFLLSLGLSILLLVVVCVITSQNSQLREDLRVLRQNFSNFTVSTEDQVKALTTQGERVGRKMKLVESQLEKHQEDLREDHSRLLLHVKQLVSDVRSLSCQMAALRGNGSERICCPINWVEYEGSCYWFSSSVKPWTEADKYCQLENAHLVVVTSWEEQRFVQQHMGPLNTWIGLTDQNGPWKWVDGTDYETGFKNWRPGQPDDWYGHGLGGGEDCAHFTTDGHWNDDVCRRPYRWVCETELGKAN
# T1 sequence (P08290 1-301): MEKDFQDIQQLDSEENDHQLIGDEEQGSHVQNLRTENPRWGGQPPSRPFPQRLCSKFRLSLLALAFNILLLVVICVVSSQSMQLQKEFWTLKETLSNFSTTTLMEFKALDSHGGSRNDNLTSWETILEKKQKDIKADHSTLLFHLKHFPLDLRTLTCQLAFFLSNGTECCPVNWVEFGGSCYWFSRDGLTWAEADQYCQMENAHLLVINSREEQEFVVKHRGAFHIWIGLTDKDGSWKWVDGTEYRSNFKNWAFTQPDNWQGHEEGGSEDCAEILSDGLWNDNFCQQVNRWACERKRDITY
# Description: The affinity of cluster glycosides can be verified by means of binding studies. In them, it is considered to what extent the compounds are capable of inhibiting the binding of the radioisotopically labeled asioloorosomucoid to parenchymal cells isolated from rat liver according to a previously described procedure (ref 17). The sugar concentration at which inhibition arises is a measure of the affinity.
# [3] = target: T2, Fuc/Gal receptor on the hepatic Kupffer cell (Rattus norvegicus, UniProt P10716); assay: Inhibition of 125I-Lac-LDL binding to Kupffer cells; details: 4° C., 2 h
# T2 construct: Kupffer cells in DMEM medium, supplemented with 2% BSA and 2 mM CaCl2; endogenous in cells; host or cells: primary Kupffer cells of liver
# T2 sequence (P10716 1-550): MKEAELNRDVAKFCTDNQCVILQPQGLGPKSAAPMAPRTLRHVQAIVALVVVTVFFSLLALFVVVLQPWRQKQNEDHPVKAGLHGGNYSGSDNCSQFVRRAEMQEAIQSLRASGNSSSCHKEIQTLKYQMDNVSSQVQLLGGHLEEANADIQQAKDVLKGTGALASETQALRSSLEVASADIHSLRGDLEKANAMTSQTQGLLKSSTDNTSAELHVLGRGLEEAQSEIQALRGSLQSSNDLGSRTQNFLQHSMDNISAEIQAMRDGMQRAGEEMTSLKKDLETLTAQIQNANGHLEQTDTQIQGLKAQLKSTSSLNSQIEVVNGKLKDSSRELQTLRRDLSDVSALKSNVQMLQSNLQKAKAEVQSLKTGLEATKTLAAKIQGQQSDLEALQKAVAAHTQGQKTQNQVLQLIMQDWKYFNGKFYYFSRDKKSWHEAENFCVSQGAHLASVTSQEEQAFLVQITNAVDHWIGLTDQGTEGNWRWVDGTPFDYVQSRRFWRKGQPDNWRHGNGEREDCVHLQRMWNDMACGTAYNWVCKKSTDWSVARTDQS
# Description: An idea of the specificity of cluster glycosides for the asialoglycoprotein receptor on the hepatic parenchymal cell can be obtained by comparing the affinity for this receptor with the affinity for the likewise galactose recognizing Fuc/Gal receptor on the hepatic Kupffer cell. […] To that end, Kupffer cells in DMEM medium, supplemented with 2% BSA and 2 mM CaCl2, are incubated at 4° C. for 2 h with 3 μg/ml ^125 I-Lac-LDL in the absence or presence of the compound, in a concentration range of 1 nM to 300 μM. After the incubation the binding of ^125 I-Lac-LDL to the Kupffer cells is determined in a manner identical to that for ^125 I-ASOR binding to liver parenchymal cells.
# [4] = cited from earlier work
# rats [5] = assay: Serum cholesterol lowering after intravenous injection in rats; type: in vivo, rat; details: injection into vena penis, 0.056-0.56 mg, FIG. 3
# Description: This was verified as follows. Male rats (250-300 g) were anesthetized by means of ether, whereafter 500 gl PBS, having dissolved therein 0.56 mg, 0.18 mg, 0.056 mg or 0 mg TG(20 Å)-chol (formula 20) or 0.56 mg tris-glu-chol (formula 21): [drawing 19] was injected into the vena penis. At the times indicated in FIG. 3, blood samples of 300 μl were taken by means of orbital puncture. The blood samples were centrifuged (5 min; 1500 g) and the serum was used for a cholesterol assay by means of the CHOD-PAP kit of Boehringer Mannheim. 24 Hours after injection the rat was bled. The blood was centrifuged whereafter the serum was pipeted. Then the serum was subjected to gradient density ultracentrifugation and the various lipoprotein fractions were isolated: HDL (1.21<d<1.05), LDL (1.050<d<1.019), IDL (1.019<d<1.006) and VLDL (d<1.006). Finally, the total cholesterol concentrations of these lipoprotein fractions were assayed by means of the CHOD-PAP kit.
# [6] = 125I-Lp(a) 50 μg + 50 μg glycolipid, 10 min after injection, mean ± s.e.m., 3 experiments
# [7] = read-out: Asialoglycoprotein receptor Ki
# [8] = read-out: Asialoglycoprotein receptor pKi (± S.E.) (converted)
# [9] = read-out: Fuc-Gal receptor pKi (converted)
SMILES,"Ki [2, 7] [µM]","Ki [2, 8] [µM]",Ki ([3]; read-out: Fuc-Gal receptor Ki) [µM],"Ki [3, 9] [µM]",further results
"CC(C)CCC[C@@H](C)[C@H]1CC[C@H]2[C@@H]3CC=C4C[C@@H](OC(=O)CCC(=O)NCC(=O)NC(CO[C@@H]5O[C@H](CO)[C@H](O)[C@H](O)[C@H]5O)(CO[C@@H]5O[C@H](CO)[C@H](O)[C@H](O)[C@H]5O)CO[C@@H]5O[C@H](CO)[C@H](O)[C@H](O)[C@H]5O)CC[C@]4(C)[C@H]3CC[C@]12C [TG(4 Å)C, reference compound]",–,–,–,–,"Contribution to hepatic uptake of Lp(a), EC (endothelial cells) (rats [1]; [6]): 10.4 ± 3%; Contribution to hepatic uptake of Lp(a), KC (Kupffer cells) (rats [1]; [6]): 80.3 ± 3%; Liver cell type location of charged lp(a) (in words) (rats [1]): mainly located in the Kupffer cell"
CC(C)CCC[C@@H](C)[C@H]1CC[C@H]2[C@@H]3CC=C4C[C@@H](OC(=O)CCC(=O)NCC(=O)NC(CO[C@@H]5O[C@H](CO)[C@H](O)[C@H](O)[C@H]5O)(CO[C@@H]5O[C@H](CO)[C@H](O)[C@H](O)[C@H]5O)CO[C@@H]5O[C@H](CO)[C@H](O)[C@H](O)[C@H]5O)CC[C@]4(C)[C@H]3CC[C@]12C [tris-gal-chol],–,–,–,–,Removal of cholesterol from the bloodstream and liver uptake [4]: capable of irreversibly removing cholesterol from the bloodstream and inducing cholesterol uptake by the liver; Potency as hypolipidemic agent ([4]; high doses necessary): low; Route of LDL removal after injection ([4]; in vivo): via the Fuc/Gal receptors on hepatic Kupffer cells
"CC(C)CCC[C@@H](C)[C@H]1CC[C@H]2[C@@H]3CC=C4C[C@@H](OC(=O)CCC(=O)NCC(=O)NC(CO[C@@H]5O[C@H](CO)[C@@H](O)[C@H](O)[C@H]5O)(CO[C@@H]5O[C@H](CO)[C@@H](O)[C@H](O)[C@H]5O)CO[C@@H]5O[C@H](CO)[C@@H](O)[C@H](O)[C@H]5O)CC[C@]4(C)[C@H]3CC[C@]12C [tris-glu-chol, reference compound]",–,–,–,–,Total serum cholesterol level (rats [5]): does not lead to a change in the cholesterol level

# The next lines start with results.
"Ki [2, 7] [µM]","Ki [2, 8] [µM]",Ki ([3]; read-out: Fuc-Gal receptor Ki) [µM],"Ki [3, 9] [µM]",SMILES,further results
390,389,> 30,> 31.6,COC(=O)CCCCC(=O)NCC(=O)NC(CO[C@@H]1O[C@H](CO)[C@H](O)[C@H](O)[C@H]1O)(CO[C@@H]1O[C@H](CO)[C@H](O)[C@H](O)[C@H]1O)CO[C@@H]1O[C@H](CO)[C@H](O)[C@H](O)[C@H]1O [Compound 15a],–
11,11.2,> 100,> 100,COC(=O)CCCCC(=O)NCC(=O)NC(COCOCCOCCO[C@@H]1O[C@H](CO)[C@H](O)[C@H](O)[C@H]1O)(COCOCCOCCO[C@@H]1O[C@H](CO)[C@H](O)[C@H](O)[C@H]1O)COCOCCOCCO[C@@H]1O[C@H](CO)[C@H](O)[C@H](O)[C@H]1O [Compound 15d],–
1.2,1.23,> 100,> 100,COC(=O)CCCCC(=O)NCC(=O)NC(COCOCCCO[C@@H]1O[C@H](CO)[C@H](O)[C@H](O)[C@H]1O)(COCOCCCO[C@@H]1O[C@H](CO)[C@H](O)[C@H](O)[C@H]1O)COCOCCCO[C@@H]1O[C@H](CO)[C@H](O)[C@H](O)[C@H]1O [Compound 15c],Relative affinity for the ASGPr (in words) ([2]; from Table 2): slightly higher affinity than TG(13 Å)
0.2,0.209,> 100,> 100,COC(=O)CCCCC(=O)NCC(=O)NC(COCOCCOCCOCCOCCO[C@@H]1O[C@H](CO)[C@H](O)[C@H](O)[C@H]1O)(COCOCCOCCOCCOCCO[C@@H]1O[C@H](CO)[C@H](O)[C@H](O)[C@H]1O)COCOCCOCCOCCOCCO[C@@H]1O[C@H](CO)[C@H](O)[C@H](O)[C@H]1O [Compound 15e],–
19,19.1,> 100,> 100,COC(=O)CCCCC(=O)NCC(=O)NC(COCOCCO[C@@H]1O[C@H](CO)[C@H](O)[C@H](O)[C@H]1O)(COCOCCO[C@@H]1O[C@H](CO)[C@H](O)[C@H](O)[C@H]1O)COCOCCO[C@@H]1O[C@H](CO)[C@H](O)[C@H](O)[C@H]1O [Compound 15b],–
